From US9351965B2, “Indazole derivatives useful as ERK inhibitors” (Merck Sharp & Dohme Corp., priority 2010, dated 2016)
pIC50: −log10 of the molar value.

These molecules were tested against fully phosphorylated, active Mouse ERK2 protein (Mus musculus (Mouse), UniProt P63085) (assay: Active ERK2 (aERK) IMAP assay). Conditions: IMAP fluorescence polarization; 30 μM ATP; 30 minute pre-incubation.
Chain of fully phosphorylated, active Mouse ERK2 protein (P63085 whole entry): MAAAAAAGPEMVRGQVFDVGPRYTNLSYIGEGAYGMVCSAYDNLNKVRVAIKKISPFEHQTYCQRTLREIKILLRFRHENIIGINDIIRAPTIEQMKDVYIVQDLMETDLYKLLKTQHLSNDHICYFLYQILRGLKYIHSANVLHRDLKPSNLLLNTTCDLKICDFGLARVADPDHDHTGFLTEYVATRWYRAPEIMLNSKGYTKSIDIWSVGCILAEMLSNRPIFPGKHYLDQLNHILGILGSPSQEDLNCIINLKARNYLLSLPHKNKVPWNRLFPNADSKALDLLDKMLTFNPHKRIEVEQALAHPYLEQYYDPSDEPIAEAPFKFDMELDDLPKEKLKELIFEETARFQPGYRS
Type: biochemical
Method: 14 μl of kinase buffer (10 mM Tris.HCl pH 7.2, 10 mM MgCl2, 0.01% Tween-20, 1 mM DTT) containing 0.4 ng unphosphorylated Mouse ERK2 protein was added to each well of a black 384-well assay plate. […] DMSO concentration during initial incubation is 6.7%. […] DMSO concentration during ERK activation was 4%. After one hour, reactions were terminated by addition of 60 μl IMAP detections beads in binding buffer (Molecular Devices). Binding was allowed to equilibrate for 30 minutes before reading the plate on an LJL Analyst Fluorescence Polarization plate reader.
Active ERK2 (aERK) Assay:
Activated ERK2 activity was also determined in the IMAP assay format using the procedure outlined above. […] Reactions proceeded for 30 minutes before termination by addition of 60 μl IMAP detection beads in binding buffer. Plates were read as above after 30 minute binding equilibration.
Cc1cc(-c2n[nH]c3ccc(C(=O)NC4CCCC(O)(Cc5ccccc5F)C4)cc23)ccn1 (single isomer, unassigned) [compound 2, N-[3-[(2-fluorophenyl)methyl]-3-hydroxycyclo-hexyl]-3-(2-methyl-4-pyridinyl)-1H-indazole-5-carboxamide] gave a pIC50 of 7.68. In the case of Cc1cc(-c2n[nH]c3ccc(C(=O)NC4CCCC(O)(Cc5ccccc5F)C4)cc23)ccn1 (single isomer, unassigned) [compound 3, N-[3-[(2-fluorophenyl)methyl]-3-hydroxycyclo-hexyl]-3-(2-methyl-4-pyridinyl)-1H-indazole-5-carboxamide], the pIC50 was 8.12. Cc1cc(-c2n[nH]c3ccc(C(=O)NC4CCCC(O)(Cc5ccccc5F)C4)cc23)ccn1 (single isomer, unassigned) [compound 4, N-[3-[(2-fluorophenyl)methyl]-3-hydroxycyclo-hexyl]-3-(2-methyl-4-pyridinyl)-1H-indazole-5-carboxamide] was tested, and the pIC50 was 6.89. Cc1cc(-c2n[nH]c3ccc(C(=O)NC4CCCC(O)(Cc5c(F)cccc5F)C4)cc23)ccn1 (single isomer, unassigned) [compound 5, N-[3-[(2,6-difluorophenyl)methyl]-3-hydroxycyclohexyl]-3-(2-methyl-4-pyridinyl)-1H-indazole-5-carboxamide] gave a pIC50 of 6.00. Molecule Cc1cc(-c2n[nH]c3ccc(C(=O)NC4CCCC(O)(Cc5c(F)cccc5F)C4)cc23)ccn1 (single isomer, unassigned) [compound 6, N-[3-[(2,6-difluorophenyl)methyl]-3-hydroxycyclohexyl]-3-(2-methyl-4-pyridinyl)-1H-indazole-5-carboxamide] has a pIC50 of 6.00. With Cc1cc(-c2n[nH]c3ccc(C(=O)NC4CCCC(O)(Cc5c(F)cccc5F)C4)cc23)ccn1 (single isomer, unassigned) [compound 7, N-[3-[(2,6-difluorophenyl)methyl]-3-hydroxycyclohexyl]-3-(2-methyl-4-pyridinyl)-1H-indazole-5-carboxamide] the pIC50 was 7.82. Cc1cc(-c2n[nH]c3ccc(C(=O)NC4CCCC(O)(Cc5c(F)cccc5F)C4)cc23)ccn1 (single isomer, unassigned) [compound 8, N-[3-[(2,6-difluorophenyl)methyl]-3-hydroxycyclohexyl]-3-(2-methyl-4-pyridinyl)-1H-indazole-5-carboxamide] showed a pIC50 of 6.00. With O=C(NC1CCCC(O)(Cc2ccccc2F)C1)c1ccc2[nH]nc(-c3ccc4ncsc4c3)c2c1 (single isomer, unassigned) [compound 10, 3-(6-benzothiazolyl)-N-[3-[(2-fluorophenyl)methyl]-3-hydroxycyclohexyl]-1H-indazole-5-carboxamide] the pIC50 was 6.00. Molecule O=C(NC1CCCC(O)(Cc2ccccc2F)C1)c1ccc2[nH]nc(-c3ccc4ncsc4c3)c2c1 (single isomer, unassigned) [compound 11, 3-(6-benzothiazolyl)-N-[3-[(2-fluorophenyl)methyl]-3-hydroxycyclohexyl]-1H-indazole-5-carboxamide] has a pIC50 of 6.58. Cc1cc(-c2n[nH]c3ccc(C(=O)NC4CCCC(Oc5ccccc5F)C4)cc23)ccn1 (single isomer, unassigned) [compound 27, N-[3-(2-fluorophenoxy)cyclohexyl]-3-(2-methyl-4-pyridinyl)-1H-indazole-5-carboxamidem] gave a pIC50 of 7.21. With Cc1cc(-c2n[nH]c3ccc(C(=O)NC4CCCC(Oc5ccccc5F)C4)cc23)ccn1 (single isomer, unassigned) [compound 28, N-[3-(2-fluorophenoxy)cyclohexyl]-3-(2-methyl-4-pyridinyl)-1H-indazole-5-carboxamide] the pIC50 was 6.95. Work on Cc1cc(-c2n[nH]c3ccc(C(=O)NC4CCCC(Oc5ccccc5Cl)C4)cc23)ccn1 (single isomer, unassigned) [compound 29, N-[3-(2-chlorophenoxy)cyclohexyl]-3-(2-methyl-4-pyridinyl)-1H-indazole-5-carboxamide] yielded a pIC50 of 6.00. In the case of Cc1cc(-c2n[nH]c3ccc(C(=O)NC4CCCC(Oc5ccccc5Cl)C4)cc23)ccn1 (single isomer, unassigned) [compound 30, N-[3-(2-chlorophenoxy)cyclohexyl]-3-(2-methyl-4-pyridinyl)-1H-indazole-5-carboxamide], the pIC50 was 7.41. With Cc1cc(-c2n[nH]c3ccc(C(=O)NC4CCCC(Oc5ccccc5Cl)C4)cc23)ccn1 (single isomer, unassigned) [compound 34, N-[3-(2-chlorophenoxy)cyclohexyl]-3-(2-methyl-4-pyridinyl)-1H-indazole-5-carboxamide] the pIC50 was 6.70. Cc1cc(-c2n[nH]c3ccc(C(=O)NC4CCCC(Oc5ccccc5Cl)C4)cc23)ccn1 (single isomer, unassigned) [compound 35, N-[3-(2-chlorophenoxy)cyclohexyl]-3-(2-methyl-4-pyridinyl)-1H-indazole-5-carboxamide] was tested, and the pIC50 was 6.72. Cc1cc(-c2n[nH]c3ccc(C(=O)NC4CCCC(Oc5ccc(F)cc5F)C4)cc23)ccn1 (single isomer, unassigned) [compound 37, N-[3-(2,4-difluorophenoxy)cyclohexyl]-3-(2-methyl-4-pyridinyl)-1H-indazole-5-carboxamide] was tested, and the pIC50 was 6.89. Cc1cc(-c2n[nH]c3ccc(C(=O)NC4CCCC(Oc5ccc(F)cc5F)C4)cc23)ccn1 (single isomer, unassigned) [compound 38, N-[3-(2,4-difluorophenoxy)cyclohexyl]-3-(2-methyl-4-pyridinyl)-1H-indazole-5-carboxamide] showed a pIC50 of 6.32. Cc1cc(-c2n[nH]c3ccc(C(=O)NC4CCCC(CO)(Oc5cccc(F)c5)C4)cc23)ccn1 (single isomer, unassigned) [compound 43, N-[3-(3-fluorophenoxy)-3-(hydroxymethyl)cyclohexyl]-3-(2-methyl-4-pyridinyl)-1H-indazole-5-carboxamide] was tested, and the pIC50 was 7.87. For Cc1cc(-c2n[nH]c3ccc(C(=O)NC4CCCC(CO)(Oc5cccc(F)c5)C4)cc23)ccn1 (single isomer, unassigned) [compound 44, N-[3-(3-fluorophenoxy)-3-(hydroxymethyl)cyclohexyl]-3-(2-methyl-4-pyridinyl)-1H-indazole-5-carboxamide], the pIC50 was 6.67. Molecule Cc1cc(-c2n[nH]c3ccc(C(=O)NC4CCCC(CO)(Oc5cccc(F)c5)C4)cc23)ccn1 (single isomer, unassigned) [compound 45, N-[3-(3-fluorophenoxy)-3-(hydroxymethyl)cyclohexyl]-3-(2-methyl-4-pyridinyl)-1H-indazole-5-carboxamide] has a pIC50 of 6.73. Cc1cc(-c2n[nH]c3ccc(C(=O)N[C@@H]4CCCC(F)(Cc5ccccc5F)C4)cc23)ccn1 (single isomer, unassigned; isomer 1) [compound 55] gave a pIC50 of 6.00. Molecule Cc1nc2ccc(-c3n[nH]c4ccc(C(=O)N[C@@H]5CCC[C@](O)(Cc6ccccc6F)C5)cc34)cn2n1 [compound 12, N-[3(S)-[(2-fluorophenyl)methyl]-3-hydroxy-1(R)-cyclohexyl]-3-(2-methyl[1,2,4]triazolo[1,5-a]pyridin-6-yl)-1H-indazole-5-carboxamide] has a pIC50 of 7.84. Molecule Cc1nc2ccc(-c3n[nH]c4ccc(C(=O)N[C@@H]5CCC[C@](O)(Cc6ccccc6F)C5)cc34)cc2s1 [compound 13, N-[3(S)-[(2-fluorophenyl)methyl]-3-hydroxy-1(R)-cyclohexyl]-3-(2-methyl-6-benzothiazolyl)-1H-indazole-5-carboxamide] has a pIC50 of 7.70. Molecule Cc1nc2ccc(-c3n[nH]c4ccc(C(=O)N[C@@H]5CCC[C@](O)(Cc6c(F)cccc6F)C5)cc34)cc2s1 [compound 14, N-[3(S)-[(2,6-difluorophenyl)methyl]-3-hydroxy-1(R)-cyclohexyl]-3-(2-methyl-6-benzothiazolyl)-1H-indazole-5-carboxamide] has a pIC50 of 7.81. Molecule O=C(N[C@@H]1CCC[C@](O)(Cc2ccccc2F)C1)c1ccc2[nH]nc(-c3ccc4nccn4c3)c2c1 [compound 15, N-[3(S)-[(2-fluorophenyl)methyl]-3-hydroxy-1(R)-cyclohexyl]-3-imidazo[1,2-a]pyridin-6-yl-1H-indazole-5-carboxamide] has a pIC50 of 8.07. CC(C)Oc1cc(-c2n[nH]c3ccc(C(=O)N[C@@H]4CCC[C@](O)(Cc5ccccc5F)C4)cc23)ccn1 [compound 16, N-[3(S)-[(2-fluorophenyl)methyl]-3-hydroxy-1(R)-cyclohexyl]-3-[2-(1-methylethoxy)-4-pyridinyl]-1H-indazole-5-carboxamide] showed a pIC50 of 6.52. Molecule CC(C)Oc1ccc(-c2n[nH]c3ccc(C(=O)N[C@@H]4CCC[C@](O)(Cc5ccccc5F)C4)cc23)cn1 [compound 17, N-[3-(S)-[(2-fluorophenyl)methyl]-3-hydroxy-1(R)-cyclohexyl]-3-[6-(1-methylethoxy)-3-pyridinyl]-1H-indazole-5-carboxamide] has a pIC50 of 7.35. CC(C)Oc1ccc(-c2n[nH]c3ccc(C(=O)N[C@@H]4CCC[C@](O)(Cc5c(F)cccc5F)C4)cc23)cn1 [compound 18, N-[3(S)-[(2,6-difluorophenyl)methyl]-3-hydroxy-1(R)-cyclohexyl]-3-[6-(1-methylethoxy)-3-pyridinyl]-1H-indazole-5-carboxamide] gave a pIC50 of 6.85. Work on Cn1cc2cc(-c3n[nH]c4ccc(C(=O)N[C@@H]5CCC[C@](O)(Cc6c(F)cccc6F)C5)cc34)ccc2n1 [compound 19, N-[3(S)-[(2,6-difluorophenyl)methyl]-3-hydroxy-1(R)-cyclohexyl]-3-(2-methyl-2H-indazol-5-yl)-1H-indazole-5-carboxamide] yielded a pIC50 of 7.92.
